Literature values as cited in publication PMC3758109 (ChemistryOpen, 2012).

Settings: humans, intravenous bolus injection

Question: For inulin, which “fraction cleared in fast phase” value is on record?
Answer: Its value is 76%.

Question: And the “fraction cleared in slow phase” value?
Answer: Its value is 24%.

Question: What about the “half-life of fast phase” value of the same substance?
Answer: The value was 10 min.

Question: And the “half-life of slow phase” value?
Answer: Its value is 86 min.
